Values quoted from earlier work as cited in patent publication US20240415880A1, “Treatment of Breast and Other Cancers Using Zinc Chloride Instead of Radiation” (priority 2023, published 2024).

Experiments:
advanced melanomas = details: 103 consecutive advanced melanomas; zinc chloride combined with surgery
[1] = test system: cancers of the mouth, accessory nasal sinuses, larynx, parotid and other salivary glands, anal region, vulva and accessible sarcomas
[2] = test system: locally advanced breast cancer tumors; details: case presentations

## [Cl-].[Cl-].[Zn+2] [zinc chloride, Zinc chloride]
Advanced melanomas
  improvement in cure rates over conventional surgery of melanomas: significant and statistical (p=0.003) improvement
[1]
  treatment outcome of cancers: successfully treated
[2]
  healing of locally advanced breast cancer tumors: remarkable healing
